Assay results: publication PMC8318231, “Rate-of-Kill (RoK) assays to triage large compound sets for Chagas disease drug discovery: Application to GSK Chagas Box” (PLoS Neglected Tropical Diseases, 2021)

Legend:
[1] = tested on: T. cruzi intracellular amastigotes in H9c2 cells; experiment: Rate-of-Kill (RoK) high-content imaging assay, amastigotes per cell (AM/CELL) and curve descriptors; assay type: cell-based, Trypanosoma cruzi; set-up: key to ME_24h / ME_48h / ME_72h: % reduction in parasite burden (cidal response); t50pct_MCC50 / t50pct_Cmax: unit not given here; settings: for ME_24h: 24h; for ME_48h: 48h; for ME_72h: 72h; for tlag_Cmax / t50pct_Cmax / t50%_Cmax: at Cmax; for ME_24h (%): maximum effect at 24 h; for ME_24h (%) / ME_48h (%) / ME_72h (%): RoK assay; for ME_48h (%): maximum effect at 48 h; for ME_72h (%): maximum effect at 72 h; for ME 24h (maximum effect at 24 hours, intracellular amastigotes): maximum percentage of parasite burden reduction reached by any concentration
How it was run: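 Readouts at each time point are amastigotes per cell and host nuclei count (cytotoxicity), from DRAQ5 high-content imaging. Infection: trypomastigotes on H9c2 at MOI 8 for 18 h. Dosing was 5 μM single point or 11 points, 1/3 steps from 50 μM. Effect scaled between 4 h infected and uninfected controls.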

[2] = tested on: T. cruzi Tulahuen trypomastigotes; experiment: T. cruzi trypomastigote assay (Cell Titer-Glo viability, ATP luminescence); assay type: cell-based, Trypanosoma cruzi; settings: for Trypomastigotes pIC50 48 hours: 48 hours incubation; for Trypomastigotes pIC50 48 hours / Trypomastigotes pIC50 72 hours: pIC50 = -log10 IC50 in molar units; for Trypomastigotes pIC50 72 hours: 72 hours incubation; for 72 pIC50 (trypomastigotes, raw data of Fig 1D): 72 hours, plotted values, censored values given without sign; for 48 pIC50 / 72 pIC50: trypomastigote assay; for 48 pIC50: 48 h; for 72 pIC50: 72 h
How it was run: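 Compounds were tested in dose response or once at a final 5 μM against 5 × 10^4 trypomastigotes per well (DMEM, 2% FBS), collected on days 5–8 from LLC-MK2 infected cultures. ATP luminescence via CellTiter-Glo reports live parasites; DMSO defines 0% and cell-free wells 100% effect.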

| Structure (SMILES) | ME_24h ([1]; figure 5) | ME_48h ([1]; figure 5) | ME_72h ([1]; figure 5) | MCCE ([1]; RoK curve descriptor) | AM/CELL NORM ([1]; Time 4, sheet figure 4 A) | AM/CELL NORM ([1]; Time 24, sheet figure 4 A) | AM/CELL NORM ([1]; Time 48, sheet figure 4 A) | AM/CELL NORM ([1]; Time 72, sheet figure 4 A) | tlag_Cmax [1] | t50pct_Cmax ([1]; figure 5) | tlag_Cmax ([1]; figure 5) | t50pct_MCC50 ([1]; at MCC50, figure 5) | tlag_MCC50 ([1]; at MCC50, figure 5) | MCCE ([1]; figure 5) | ME_24h (%) [1] | ME_48h (%) [1] | ME_72h (%) [1] | ME 24h (maximum effect at 24 hours, intracellular amastigotes) [1] | Trypomastigotes pIC50 48 hours [2] | Trypomastigotes pIC50 72 hours [2] | further results |
| --- | --- | --- | --- | --- | --- | --- | --- | --- | --- | --- | --- | --- | --- | --- | --- | --- | --- | --- | --- | --- | --- |
| Cn1nccc1-c1cc(OC(CN)c2ccccc2)cnc1-c1ccco1.O=C(O)C(F)(F)F.O=C(O)C(F)(F)F (centres unmarked) [TCMDC-143221] | -243.084 | -97.9255 | 30.5438 | 1.9 µM | 21.0268 | -310.615 | -207.349 | 0.471 | 24.0 h | 72 | 24 | 72 | 72 | 1.852 | -243.1% | -97.9% | 30.5% | -243.084% | 4.4 | < 4.3 | MCC50 ([1]; figure 5): 50 µM |
| CS(=O)(=O)c1ccc(CC(=O)Nc2nc(-c3ccc(Cl)s3)cs2)cc1 [TCMDC-143224] | -50.7576 | -167.826 | 53.6478 | 1.9 µM | -3.952 | -61.4068 | -205.24 | -9.589 | 48.0 h | 72 | 48 | 72 | 48 | 1.852 | -50.8% | -167.8% | 53.7% | -50.7576% | < 4.3 | < 4.3 | MCC50 ([1]; RoK curve descriptor): 16.7 µM; t50%_MCC50 ([1]; at MCC50): 72.0 h; tlag_MCC50 ([1]; at MCC50): 48.0 h; MCC50 ([1]; figure 5, in µM): 16.6667; 72 pIC50 (trypomastigotes, raw data of Fig 1D) [2]: < 4.3; 48 pIC50 ([2]; figure 1A): < 4.3; 72 pIC50 ([2]; figure 1A): < 4.3; 72 pIC50 ([2]; figure 1B): < 4.3 |
| O=C(NCCc1cccnc1)c1csc(-c2ccccc2)n1 [TCMDC-143203] | -222.428 | -89.2348 | 54.0545 | 0.6 µM | 2.597 | -179.486 | -77.3027 | 80.8727 | 24.0 h | 72 | 24 | 72 | 48 | 0.6173 | -222.4% | -89.2% | 54.1% | -177.566% | < 4.3 | < 4.3 | MCC50 ([1]; RoK curve descriptor): 5.6 µM; t50%_Cmax [1]: 72.0 h; t50%_MCC50 ([1]; at MCC50): 72.0 h; tlag_MCC50 ([1]; at MCC50): 24.0 h; MCC50 ([1]; figure 5, in µM): 27.7778; 72 pIC50 (trypomastigotes, raw data of Fig 1D) [2]: < 4.3; 48 pIC50 ([2]; figure 1A): < 4.3; 72 pIC50 ([2]; figure 1A): < 4.3; 72 pIC50 ([2]; figure 1B): < 4.3 |
| O=S(=O)(c1cccc(CSc2nnc(-c3ccc4c(c3)OCO4)o2)c1)N1CCOCC1 [TCMDC-143197] | -16.5303 | 13.4442 | 33.635 | 0.07 µM | -18.4264 | -16.5303 | -6.567 | 29.0194 | 4.0 h | 72 | 4 | 72 | 72 | 0.06859 | -16.5% | 13.4% | 33.6% | -16.5303% | < 4.3 | < 4.3 | MCC50 ([1]; figure 5): 50 µM; 72 pIC50 (trypomastigotes, raw data of Fig 1D) [2]: < 4.3; 48 pIC50 ([2]; figure 1A): < 4.3; 72 pIC50 ([2]; figure 1A): < 4.3; 72 pIC50 ([2]; figure 1B): < 4.3 |
| COc1ccc(C(C)N(C)c2ncc3c(N)nc(N)nc3n2)cc1F (centres unmarked) [TCMDC-143298] | 43.2682 | 65.4547 | 72.4604 | 0.16 µM | 12.1557 | 34.3534 | 59.1852 | 72.1771 | 4.0 h | 64 | 4 | 56 | 4 | 0.16 | 43.3% | 65.5% | 72.5% | 45.8485% | 6.5 | 6.7 | MCC and MCCE values (in words) [1]: low MCC and MCCE values; ME (maximum effect) in RoK assay (in words) [1]: high ME value; tlag times [1]: 4 h; MCC50 ([1]; RoK curve descriptor): 1.4 µM; t50%_Cmax [1]: 64.0 h; t50%_MCC50 ([1]; at MCC50): 56.0 h; tlag_MCC50 ([1]; at MCC50): 4.0 h; MCC50 ([1]; figure 5): 1.44 µM |
| O=C(NCC1CCCCC1)c1cc(=O)c2ccccc2o1 [TCMDC-123621] | 36.8077 | 33.2383 | 64.4668 | 0.6 µM | – | – | – | – | 4.0 h | 72 | 4 | 72 | 4 | 0.6173 | 36.8% | 33.2% | 64.5% | 36.8077% | 5 | 5 | MCC50 ([1]; RoK curve descriptor): 5.6 µM; AM/CELL NORM ([1]; Time 4, figure 4 A): -5.701; AM/CELL NORM ([1]; Time 24, figure 4 A): 30.3317; AM/CELL NORM ([1]; Time 48, figure 4 A): 33.2183; AM/CELL NORM ([1]; Time 72, figure 4 A): 64.4668; t50%_Cmax [1]: 72.0 h; t50%_MCC50 ([1]; at MCC50): 72.0 h; tlag_MCC50 ([1]; at MCC50): 4.0 h; MCC50 ([1]; figure 5, in µM): 5.556; 72 pIC50 (trypomastigotes, raw data of Fig 1D) [2]: 5; 48 pIC50 ([2]; figure 1A): 5; 72 pIC50 ([2]; figure 1A): 5; 72 pIC50 ([2]; figure 1B): 5 |
| COc1cc(NC(=O)Nc2cccc(CNC(=O)OC3CCCCC3)c2)ccc1-c1cnco1 [TCMDC-143376] | -229.157 | -76.0857 | -0.198 | 0.6 µM | – | – | – | – | 24.0 h | 72 | 24 | 72 | 72 | 0.6173 | -229.2% | -76.1% | -0.2% | 42.5513% | – | 4.9 | AM/CELL NORM ([1]; Time 4, figure 4 A): -2.926; AM/CELL NORM ([1]; Time 24, figure 4 A): -229.157; AM/CELL NORM ([1]; Time 48, figure 4 A): -76.0857; AM/CELL NORM ([1]; Time 72, figure 4 A): -16.3246; MCC50 ([1]; figure 5): 50 µM |
| CCCn1c(NC(=O)Cc2ccc(Cl)cc2)nc2ccccc21 [TCMDC-143279] | -55.8269 | -85.7556 | -269.589 | 9.3 µM | 0.2091 | -159.496 | -347.093 | -621.538 | 38.0 h | 72 | 38 | 60 | 48 | 9.259 | -55.8% | -85.8% | -269.6% | 3.26% | 5.9 | 6 | MCC50 ([1]; RoK curve descriptor): 5.6 µM; t50%_MCC50 ([1]; at MCC50): 48.0 h; tlag_MCC50 ([1]; at MCC50): 24.0 h; MCC50 ([1]; figure 5, in µM): 27.7778 |
| CCN(C)Cc1ccc(N2CCC(NS(=O)(=O)c3ccc4c(c3)CCO4)CC2)nc1 [TCMDC-143244] | -27.3777 | 29.749 | 55.3707 | 5.6 µM | 16.0918 | – | – | – | 24.0 h | 72 | 24 | 72 | 48 | 5.556 | -27.4% | 29.8% | 55.4% | -2.6188% | < 4.3 | < 4.3 | MCC50 ([1]; RoK curve descriptor): 5.6 µM; AM/CELL NORM ([1]; Time 24, figure 4 A): -52.1365; AM/CELL NORM ([1]; Time 48, figure 4 A): 10.0549; AM/CELL NORM ([1]; Time 72, figure 4 A): 24.5494; t50%_Cmax [1]: 72.0 h; t50%_MCC50 ([1]; at MCC50): 72.0 h; tlag_MCC50 ([1]; at MCC50): 24.0 h; MCC50 ([1]; figure 5, in µM): 27.7778; 72 pIC50 (trypomastigotes, raw data of Fig 1D) [2]: < 4.3; 48 pIC50 ([2]; figure 1A): < 4.3; 72 pIC50 ([2]; figure 1A): < 4.3; 72 pIC50 ([2]; figure 1B): < 4.3 |
